# Test results as given in US9452152B2, “Fe(III) complex compounds for the treatment and prophylaxis of iron deficiency symptoms and iron deficiency anemias” (Vifor (International) AG, priority 2012, dated 2016).
# What was measured:
# [1] = test system: Male NMRI (SPF) mice fed a low-iron diet; experiment: Fe utilization in iron-deficient mouse model (hemoglobin and body weight increase); format: in vivo; details: for Utilization n 15 d (abs. %): mice, stomach tube, 2 mg iron/kg body weight/day, days 1-5 and 8-12, utilization on day 15; for iron utilization, Example according to the invention: comparison table, compounds of the invention
# Procedure: The excellent Fe utilizations that can be accomplished through the Fe complexes according to the invention were measured by means of the following mouse model.
# (In each case 6 animals per substance were used. There was a negative group (water) with 6 animals and as a positive group FeSO4 was used with 6 animals, too).
# Male NMRI (SPF) mice (approximately 3 weeks old) were fed a low-iron diet (approx. 5 ppm iron) for approximately 3 weeks. The iron complexes were then administered to them by means of a stomach tube (2 mg iron/kg body weight/day) for 2 times 5 days, with an interruption of 2 days (days 1-5 and 8-12). Utilization on day 15 was calculated from the hemoglobin increase and the body weight increase in accordance with the formula
# 0.07=Factor for 70 ml blood per kg body weight (BW)
# Hb1=Hemoglobin level (g/l) on day 1
# Hb2(3)=Hemoglobin level (g/I) on day 8 (or 15)
# BW4=body weight (g) on day 1
# BW9(14)=body weight (g) on day 8 (or 15)
# Hb1 Control=average hemoglobin level (g/l) on day 1 in the control group,
# Hb2(3) Control=average hemoglobin level (g/l) on day 8 (or 15) in the control group,
# BW4 Control=average body weight (g) on day 1 in the control group,
# BW9(14) Control=average body weight (g) on day 8 (or 15) in the control group,
# Fe Dos.=entire administered iron (mg Fe) over 5 or 10 days,
# Δ Utilization=Fe tot. utilized (examined group)−Fe ut. Control group, utilized from food, (mg Fe)
# [2] = Comparison of the pH-dependent solubility (photometric iron determination); format: physicochemical; details: water, pH 6.5 (phthalate buffer 0.1 m), 4 h, 25° C.; for Solubility based on amount of iron: ">" = weighed amount completely dissolved
# From the text: The pH was adjusted to 6.5 with a phthalate buffer (0.1 m). […] UV device type SPECORD 205 manufacturer Jena Analytik). This value represents the solubility of the iron complex. If the weighed amount of the iron complex was completely dissolved, the measured value was indicated by the prefix “>”.
Substance,Utilization n 15 d (abs. %) [1] [abs. %],"iron utilization, Example according to the invention ([1]; mouse model) [%]",optical evaluation: dissolved? [2],Solubility based on amount of iron [2] [µg/mL],iron utilization (statement in words) ([1]; mouse model)
"Tris-(2,4-dioxo-4-(pyrrolidine-1-yl)butaneamide)-iron(III)-complex [Example 4]",92,,,,
"Tris-(4-(morpholine-4-yl)-2,4-dioxobutaneamide)-iron(III)-complex [Example 2]",75,75,,,
"Tris-(N,N,N′,N′-tetramethyl-2-oxobutanediamide)-iron(III)-complex [Example 5]",82,82,yes,>550,
"Tris-(N,N-Dimethyl-3,4-dioxo-4-(pyrrolidine-1-yl)butaneamide)-iron(III) complex [Example 11]",50,,,,
"Tris-(N^1,N^4,N^4-trimethyl-2-oxobutanediamide)-iron(III)-complex [Example 7]",68,,,,
"Tris-(N^1-(2-methoxyethyl)-N^4,N^4-dimethyl-2-oxobutanamid)-iron(III)-complex [Example 16]",65,,no,450,
"Tris-(N^1-[2-(dimethylamino)-2-oxoethyl]-N^1,N^4,N^4-trimethyl-2-oxobutanediamide)-iron(III)-complex [Example 18]",78,,no,580,
"Tris-(N^4,N^4-dimethyl-2-oxobutanediamide)-iron(III)-complex [Example 1]",98,98,yes,529,significantly improved iron utilization compared to Example 32 of WO11117225A1
"Tris-(N^4-(2-hydroxyethyl)-N^1,N^1,N^4-trimethyl-2-oxobutanediamide)-iron(III)-complex [Example 21]",86,86,no,490,
"Tris-(N^4-(2-methoxyethyl)-N^1,N^1,N^4-trimethyl-2-oxobutanediamide)-iron(III)-complex [Example 13]",70,,yes,>520,
"Tris-(N^4-[2-(dimethylamino)-2-oxoethyl]-N^1,N^1,N^4-trimethyl-2-oxobutanediamide)-iron(III)-complex [Example 12]",80,,yes,>510,
"Tris-(ethyl-N-[4-(dimethylamino)-2,4-dioxobutanoyl]-N-methylglycinate)-iron(III)-complex [Example 17]",91,,no,470,
